Results as given in PMC6271340, “Synthesis and Anti-Tumor Activity of Novel Aminomethylated Derivatives of Isoliquiritigenin” (Molecules, 2014).
Where “and” joins values, the source holds several entries; their conditions need not be identical. Identical values can stand only once. Blank lines part the entries; values can stand above or below the molecule they belong to.

Tests used:
[1] = system: MCF-7, human breast cancer cells; test: MTT cytotoxicity assay, MCF-7; format: cell-based; conditions: MCF7, 72 h
Protocol: (§1) We examined the cytotoxicity of ISL nitrogenous derivatives against three cancer cell lines (PC-3, MCF-7 and HO-8910) and normal human THP-1 cells using MTT growth inhibition assays. ISL was used as a positive control. […] The IC50 values were all above 100 µM.
(§2) Cytotoxicity was evaluated against four human cell lines (MCF-7 breast cancer, PC-3 prostatic cancer, HO-8910 ovarian cancer, and THP1 normal cells). Briefly, MCF-7, PC-3 and HO-8910 cells were separately plated in 96-well culture plates (1 × 10^5 cells/well). After 24 h incubation, cells were treated with compounds 7–16 (0, 3.13, 6.25, 12.5, 25, 50 and 100 µM) for 72 h. MTT solution (5 mg/mL) was then added to each well. After 4 h incubation, the formazan precipitate was dissolved in […] dimethyl sulfoxide (DMSO), and then the absorbance was measured in an ELISA reader (Thermo Molecular Devices Co., Union City, CA, USA) at 570 nm. The cell viability ratio was calculated by the following formula: Inhibitory ratio (%) = (1 − ODtreated/ODcontrol) × 100%.

[2] = system: HO-4980, human ovarian cancer cells; test: MTT cytotoxicity assay, HO-4980 (HO-8910); format: cell-based; conditions: 72 h
Protocol: as §1, §2

[3] = system: PC-3, human prostate cancer cells; test: MTT cytotoxicity assay, PC-3; format: cell-based; conditions: 72 h
Protocol: as §1, §2

[4] = MTT cytotoxicity assay, THP-1 normal cells; format: cell-based; conditions: human, THP-1 cells (called normal cells)
Protocol: as §1, §2

[5] = Body-weight change as toxicity parameter in S180 tumor-bearing mice; format: in vivo; conditions: for BWC (%) body-weight change: S180 tumor-bearing BALB/c mice; for Changes in body weight as parameter for toxicity (in words): ISL derivative 15 at 80 or 40 mg/kg, ISL at 40 mg/kg, S180 tumor-bearing mice
Protocol: For comparison, ISL (40 mg/kg) was analyzed as positive control. Changes in body weight were used as parameter for toxicity.
(§3) Female BALB/c mice (6–8 weeks old, 25 ± 2 g) were obtained from the Third Affiliated Hospital of Harbin Medical University. S180 sarcoma cells were purchased from the Experimental Animal Center of Peking University Health Science Center (Heilongjiang, China). The animals were housed in polypropylene cages and maintained under controlled conditions of 12 h light/12 h dark photoperiod and 55 ± 5% relative humidity at room temperature (28 ± 2 °C). After fed in our facility for 1 week, 40 mice were induced S180 tumor cells according to Wu et al. with some modification. All mice were subcutaneously implanted with 1 × 10^6 cells/mice on the right flank. After inoculation for 24 h, all animals were randomly divided into one untreated control group, one treated positive control group and two treated experimental groups (each group contained 10 mice).
(§4) Group I (untreated control) received orally the same volume of 0.9% normal saline once per day as the treated groups. Group II (treated positive control) received orally ISL at a dosage of 40 mg/kg body weight once per day. Group III (low dose of ISL derivative 15 treatment) received ISL derivative 15 orally (dissolved in 0.2 mL normal saline) at a dosage of 40 mg/kg body weight once per day. Group IV (high-dose of ISL derivative 15 treatment) received ISL derivative 15 orally (dissolved in 0.2 mL normal saline) at a dosage of 80 mg/kg body weight once per day.

[6] = system: S180 sarcoma cells; test: Anti-tumor activity in S180 tumor-bearing mice; format: in vivo; conditions: S180 tumor-bearing BALB/c mice
Protocol: as §3, §4

Structure (SMILES): CN(C)Cc1c(O)ccc(C(=O)/C=C/c2ccc(O)cc2)c1O [Compound 7, (E)-1-(3-(dimethylaminomethyl)-2,4-dihydroxyphenyl)-3-(4-hydroxyphenyl)prop-2-en-1-one]
IC50 [1]: > 100 µM
IC50 [2]: > 100 µM
IC50 [3]: > 100 µM
IC50 [4]: > 100 µM
melting point: > 176 °C

Structure (SMILES): O=C(/C=C/c1ccc(O)cc1)c1ccc(O)c(CN2CCOCC2)c1O [Compound 8, (E)-1-(2,4-dihydroxy-3-(morpholinomethyl)phenyl)-3-(4-hydroxyphenyl)prop-2-en-1-one]
IC50 [1]: > 100 µM
IC50 [2]: 96.4 µM
IC50 [3]: 48.6 µM
IC50 [4]: > 100 µM
melting point: > 180 °C

Structure (SMILES): O=C(/C=C/c1ccc(O)cc1)c1ccc(O)c(CNC2CCCCC2)c1O [Compound 9, (E)-1-(3-(cyclohexylaminomethyl)-2,4-dihydroxyphenyl)-3-(4-hydroxyphenyl)prop-2-en-1-one]
IC50 [1]: 73.6 µM
IC50 [2]: > 100 µM
IC50 [3]: 28.3 µM
IC50 [4]: > 100 µM
melting point: > 168 °C

Structure (SMILES): O=C(/C=C/c1ccc(O)cc1)c1ccc(O)c(CN(CCO)CCO)c1O [Compound 15, (E)-1-(3-((bis(2-hydroxyethyl)amino)methyl)-2,4-dihydroxyphenyl)-3-(4-hydroxyphenyl)prop-2-en-1-one]
BWC (%) body-weight change ([5]; 40 mg/kg orally once per day): +12.8%
BWC (%) body-weight change ([5]; 80 mg/kg orally once per day): +7.8%
Changes in body weight as parameter for toxicity (in words) [5]: Loss of body weight was not found
IC50 [1]: 42.9 µM
IC50 [2]: 37.9 µM
IC50 [3]: 35.1 µM
TIR (%) tumor inhibitory rate ([6]; 40 mg/kg orally once per day): 39.72%
TW (g) x ± SD (tumor weight) ([6]; 40 mg/kg orally once per day): 0.74 ± 0.618 g
TIR (%) tumor inhibitory rate ([6]; 80 mg/kg orally once per day): 71.68%
TW (g) x ± SD (tumor weight) ([6]; 80 mg/kg orally once per day): 0.35 ± 0.442 g
IC50 [4]: > 100 µM

Structure (SMILES): O=C(/C=C/c1ccc(O)cc1)c1ccc(O)cc1O [ISL, isoliquiritigenin]
BWC (%) body-weight change ([5]; 40 mg/kg orally once per day): −3.0%
Changes in body weight as parameter for toxicity (in words) [5]: slight weight loss
IC50 [1]: 44.1 µM
IC50 [2]: 58.4 µM
IC50 [3]: 36.9 µM
TIR (%) tumor inhibitory rate ([6]; 40 mg/kg orally once per day): 32.44%
TW (g) x ± SD (tumor weight) ([6]; 40 mg/kg orally once per day): 0.85 ± 0.369 g
IC50 [4]: > 100 µM

Further lines, with some results ahead:

melting point: > 180 °C
Structure (SMILES): CC(C)N(Cc1c(O)ccc(C(=O)/C=C/c2ccc(O)cc2)c1O)C(C)C [Compound 10]
IC50 [1]: 84.6 µM
IC50 [2]: 98.1 µM
IC50 [3]: > 100 µM
IC50 [4]: > 100 µM

melting point: > 176 °C
Structure (SMILES): CCN(CC)Cc1c(O)ccc(C(=O)/C=C/c2ccc(O)cc2)c1O [Compound 11, (E)-1-(3-((diethylamino)methyl)-2,4-dihydroxyphenyl)-3-(4-hydroxyphenyl)prop-2-en-1-one]
IC50 [1]: > 100 µM
IC50 [2]: 97.3 µM
IC50 [3]: 66 µM
IC50 [4]: > 100 µM

melting point: > 175 °C
Structure (SMILES): CCC(C)NCc1c(O)ccc(C(=O)/C=C/c2ccc(O)cc2)c1O (stereo not shown) [Compound 12, (E)-1-(3-((sec-butylamino)methyl)-2,4-dihydroxyphenyl)-3-(4-hydroxyphenyl)prop-2-en-1-one]
IC50 [1]: 84.8 µM
IC50 [2]: > 100 µM
IC50 [3]: 57.1 µM
IC50 [4]: > 100 µM

melting point: > 170 °C
Structure (SMILES): CC(C)(C)NCc1c(O)ccc(C(=O)/C=C/c2ccc(O)cc2)c1O [Compound 13, (E)-1-(3-((tert-butylamino)methyl)-2,4-dihydroxyphenyl)-3-(4-hydroxyphenyl)prop-2-en-1-one]
IC50 [1]: > 100 µM
IC50 [2]: > 100 µM
IC50 [3]: > 100 µM
IC50 [4]: > 100 µM

melting point: > 180 °C
Structure (SMILES): O=C(C=Cc1ccc(O)cc1)c1ccc(O)c(CNCCO)c1O [Compound 14, 1-(2,4-dihydroxy-3-((2-hydroxyethylamino)methyl)phenyl)-3-(4-hydroxyphenyl)propen-1-one]
IC50 [1]: 66 µM
IC50 [2]: 89 µM
IC50 [3]: 87.7 µM
IC50 [4]: > 100 µM

melting point: 116.5 to 117.1 °C and 116.5 to 117.4 °C
Structure (SMILES): O=C(/C=C/c1ccc(O)cc1)c1ccc(O)c(CN2CCCC2)c1O [Compound 16]
IC50 [1]: 81.8 µM
IC50 [2]: 74.9 µM
IC50 [3]: > 100 µM
IC50 [4]: > 100 µM
